Data set [1] in a line: Freeze-drying apple exosomes using trehalose, LMW HA and their combination (TEM, NTA). The format is physicochemical. Conditions: rehydrated after freeze-drying, FIG. 5. As to the method:
For TEM imaging, exosomes are fixed with 4.0% paraformaldehyde (PFA) in sodiumphosphate buffer and stained with 2% neutral uranyl acetate with embedding in uranyl acetate and methylcellulose mixture. Exosomes are viewed with transmission EM using Jeol JEM-1400 (Jeol Ltd., Tokyo, Japan) operating at 80 kV. Images are taken with Gatan Orius SC 1000B CCD-camera (Gatan Inc., USA) with 4008×2672 px image size and no binning.
Particle number and size distribution of the exosome is measured by NTA instrument LM14C (NanoSight LTD., London, UK) equipped with blue (404 nm, 70 mW) laser and sCMOS camera. Data are analysed with Nanosight software v3.0, using threshold 5 and gain 10.
To test the preservation of exosome functionality and integrity during the lyophilization process, two cryoprotectants (trehalose and LMW HA) in four different cryoprotectant combinations were used, namely: 50 mM trehalose, 100 mM trehalose, 5% LMW HA, and 50 mM trehalose +2.5% LMW HA. Lyophilization solutions were prepared using PBS. The overall osmolality of the lyophilization solutions was maintained at 290 mOsm/kg. For the freeze-drying experiments, isolated exosomes (10^10-10^11 particle/ml) were suspended in cryoprotectant solution. 5 ml of each sample was prepared. Each solution was divided into 3 polypropylene microcentrifuge tubes, each tube containing 1.2 ml of lyophilization solution supplied with exosomes. […]

Data set [2] is described as follows: Lyophilization of exosomes with different cryoprotectants of Table 1 (BCA kit, TEM, NTA). The format is physicochemical. Conditions: FIG. 4. As to the method: The protein concentration of isolated exosomes is measured by BCA protein assay kit. Isolated exosomes were characterized by fluorescent staining, Transmission electron microscopy (TEM), and Nanoparticle Tracking Analysis (NTA).
Different cryoprotectant components namely trehalose, mannitol, sorbitol, sucrose, glucose and HA (both low Mw (LW) and high Mw (HMW)), either alone or in combination with HA or glycine (see Table 1) were tested for exosome viability outcome after lyophilization. PBS (290 mOsm/kg) was used as the solvent. The LMW HA used for the examples described herein is LMW HA having a Mw lower than 10 kDa. Isolated exosomes (1 mg/ml) were dissolved in PBS solution and then mixed with cryoprotectant solution in the ratio of 1 part exosomes to 1, 3, 5, or 10 parts of cryoprotectant.
Cryoprotectant solutions were prepared using phosphate-buffered saline (PBS) while the overall osmolality of the lyophilization solutions was maintained at 290 mOsm/kg. Isolated exosomes (10^10-10^11 particle/ml) were suspended in cryoprotectant solution ranging from 1 part of exosome suspension with 3 parts of cryoprotectant solution, to, 3 parts of exosome suspension with 1 part of cryoprotectant solution. Exosomes were lyophilized and then morphology of retrieved exosomes was visualized by TEM while size and concentration were measured by NTA (see FIG. 4). […]

Data set [3] concerns human dermal fibroblasts. In words: Collagen production, human collagen type I ELISA kit. Conditions: incubated 48 h, FIG. 6(c). The format is cell-based. As to the method: Also, collagen production was measured using a human collagen type I ELIZA kit. Human dermal fibroblasts were incubated with the exosome samples for 48 h. 100 μl of cell culture media was collected from each sample and incubated with 100 μl of biotinylated detection antibody for 1 h at 37° C. Samples were then washed and incubated with 100 μl of horseradish peroxidase (HRP) conjugate working solution. Stop solution was added and optical density was measured at 450 nm with a Plate Reader.
Background: ELISA stands for enzyme-linked immunosorbent assay.

Data set [4] relates to human dermal fibroblasts. In words: MTT assay (fibroblast proliferation). The format is cell-based. Conditions: FIG. 6(b). As to the method:
The effect of the exosomes on the proliferation of human dermal fibroblasts was measured by a 3-[4.5-Dimethylthiazol-2-yl]-2.5-diphenyltetrazolium bromide ([…]; Life technologies) assay. Briefly, human dermal fibroblast cells are seeded in 96-well plates at an initial density of 5×10^3 cells/well for 24 h and then are treated with 100 μg/mL of exosomes for 48 hours. Cells are incubated with 0.5 mg/mL of MTT for 3-5 h and then 100 μl DMSO is added to each well and the optical density is measured at 540 nm.
On the technique in general: Tetrazolium assays rely on reduction of a dye to a coloured formazan, in cell work by metabolically active cells.

Data set [5] concerns human dermal fibroblasts. The data set can be described thus: Wound scratch assay (relative wound density). The format is cell-based. Conditions: FIG. 6(a). How it is done: Human dermal fibroblasts are seeded in 96 well plates at 2.4×10^4 cells/well. A cell-free area is then created in a confluent monolayer by physical exclusion through mechanical damage using a […] pipette tip. The culture medium is replaced immediately with a fresh 0.5% EV-free serum-supplemented culture medium containing 100 μg/ml of each exosome preparation tested. Three positions per scratch are imaged for 48 hours. Relative wound density is analysed by measuring the wound area over the healing time. All scratch assays are performed in triplicate.

Take `OC[C@H]1O[C@H](O[C@H]2O[C@H](CO)[C@@H](O)[C@H](O)[C@H]2O)[C@H](O)[C@@H](O)[C@@H]1O` [trehalose, Trehalose]: in data set [1], the “aggregation, size and concentration of lyophilized apple exosomes (result in words)” value is given as “no exosome aggregation”. The “exosome concentration, morphology, aggregation after lyophilization (result in words)” value in data set [2] was “best results as a single component cryoprotectant”.

For the molecule “Hyaluronic acid (LMW) [hyaluronic acid at low-molecular-weight]”, in the data set on human dermal fibroblasts [3], the “collagen production by fibroblasts (result in words)” value is recorded as “positive role”. In addition, the “fibroblast proliferation, lyophilised versus non-lyophilised exosomes (result in words)” value in the data set on human dermal fibroblasts [4] is “positive role”. For the same molecule, in the data set with human dermal fibroblasts [5], the “relative wound density, lyophilised versus non-lyophilised exosomes (result in words)” value is listed as “positive role”.
